According to ChEMBL document CHEMBL1201862, “PubChem BioAssay data set” (2004):
The source made the active and inactive calls.

Columns and labels:
Mu-type opioid receptor = Mu-type opioid receptor (Homo sapiens, UniProt P35372); assay type: functional, cell-based;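 further: U2OS cells with beta-arrestin recruitment to OPRM1 by beta-gal complementation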
[1] = molecular target: 5-hydroxytryptamine receptor 2A (Mus musculus, UniProt P35363); assay type: functional, cell-based;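 further: CHO-K1 cells with tagged receptor and beta-arrestin; agonist potency measured as compound-induced activation of the receptor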
Albumin = Albumin (Bos taurus, UniProt P02769); test: Counterscreen for inhibitors of T-cell receptor (TCR)-CD3 interaction: Fluorescence-based biochemical high throughput dose response assay to identify inhibitors of T-cell receptor (TCR)-CD3 interaction using a TAMRA-labeled BSA probe.; assay type: functional
Major prion protein = Major prion protein (Homo sapiens, UniProt P04156); assay type: functional, cell-based
Fatty acid synthase [2] = molecular target: T1, Fatty acid synthase (Homo sapiens, UniProt P49327); test: inhibition of human FAS-TE enzyme activity – biochemical, endpoint fluorescence intensity, uHTS hits, dose response (AID 624327); assay type: functional;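 further: fluorescence from hydrolysis of an O-methyl fluorescein acyl ester substrate by the enzyme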
Fatty acid synthase [3] = molecular target: T1, Fatty acid synthase; test: inhibition of human FAS-TE enzyme activity – biochemical, kinetic fluorescence intensity, dose response (AID 624326); assay type: functional;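 further: rate of fluorescence rise from hydrolysis of a fluorogenic O-methyl fluorescein ester substrate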
[4] = intracellular Trypanosoma cruzi inhibitors in host cells – cell-based, plate reader, cherry-pick samples, set 3, dose response (AID 651818); assay type: functional;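 further: compounds incubated with infected cells for about four days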
Genome polyprotein = Genome polyprotein (dengue virus type 2, UniProt P29990); test: flavivirus cap methylation enzyme inhibition – biochemical, confirmation dose response, primary screen (AID 588689); assay type: functional
[5] = molecular target: T2, Rac GTPase-activating protein 1 (Homo sapiens, UniProt Q9H0H5); test: blockers of MgcRacGAP-driven Rac1 GTP hydrolysis – biochemical, ADP Hunter fluorescence, primary and confirmatory, confirmation (AID 624330); assay type: functional
T2 sequence (Q9H0H5 whole entry): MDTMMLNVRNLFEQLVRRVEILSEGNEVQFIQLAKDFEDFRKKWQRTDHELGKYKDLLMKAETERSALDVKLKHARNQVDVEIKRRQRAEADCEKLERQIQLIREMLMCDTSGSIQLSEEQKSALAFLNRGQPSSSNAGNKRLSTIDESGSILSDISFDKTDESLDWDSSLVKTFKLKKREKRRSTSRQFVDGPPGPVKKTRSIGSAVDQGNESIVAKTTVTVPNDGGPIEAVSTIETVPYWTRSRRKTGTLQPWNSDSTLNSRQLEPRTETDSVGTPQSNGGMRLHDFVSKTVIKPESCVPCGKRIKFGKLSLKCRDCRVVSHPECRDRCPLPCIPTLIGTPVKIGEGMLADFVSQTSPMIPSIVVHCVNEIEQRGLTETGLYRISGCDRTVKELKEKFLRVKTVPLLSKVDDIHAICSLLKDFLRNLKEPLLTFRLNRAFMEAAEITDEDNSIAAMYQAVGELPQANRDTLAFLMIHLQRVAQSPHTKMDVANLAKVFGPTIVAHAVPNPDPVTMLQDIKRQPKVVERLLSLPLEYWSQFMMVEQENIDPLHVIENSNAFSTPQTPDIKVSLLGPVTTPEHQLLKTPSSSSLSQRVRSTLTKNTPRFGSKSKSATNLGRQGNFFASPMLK

Melanocortin receptor 4 = Melanocortin receptor 4 (Homo sapiens, UniProt P32245); test: inhibitors of MC4R cAMP signaling – cell-based, TR-FRET, biased antagonists, dose response (AID 602298); assay type: functional;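 further: antagonist potency against agonist-stimulated cAMP production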
[6] = cAMP pathway inhibition in counterscreen cell line – TR-FRET cAMP detection, counter-screen for MC4R biased antagonist project, dose response (AID 602305); assay type: functional, cell-based;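 further: U2OS cells stimulated with forskolin near its EC80 as the cAMP inducer; potency is for inhibition of forskolin-stimulated cAMP signaling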
Beta-galactosidase = Beta-galactosidase (Escherichia coli, UniProt Q8VNN2); test: Dose response counterscreen for EBI2 assay utilizing the enzyme, b-galactosidase.; assay type: functional
H4 = test: Luminescence Cell-Based Dose Response HTS to Identify Activators of 5'UTR Stem-Loop Driven Prion Protein mRNA Translation in H4 Neuroglioblastoma Cells. [Related pubchem assays: 1829 (Project Summary), 1814 (Primary HTS)]; assay type: functional; details: Homo sapiens
[7] = Luminescence Cell-Based Dose Response HTS to Identify Activators of Luciferase Translation or Activity in H4 […] Cells. [Related pubchem assays: 1829 (Project Summary), 1814 (Primary HTS)]; assay type: functional
[8] = Luminescence Cell-Based Dose Confirmation HTS to Identify Activators of 5'UTR Stem-Loop Driven Alpha-Synuclein mRNA Translation in H4 Neuroglioblastoma Cells. [Related pubchem assays: 1829 (Project Summary), 1814 (Primary HTS)]; assay type: functional

## CNCCc1c[nH]c2ccc(O)cc12
Mu-type opioid receptor
  EC50: 92.4 µM (inactive)
[1]
  EC50: 1.73 µM (active)

## COc1ccccc1C(=O)NNC(=O)c1ccc2ccccc2c1O
Albumin
  IC50: > 94.2 µM (inactive)

## Brc1ccc2nc(-c3ccc(CN4CCC5(CC4)CNc4ccccc45)cc3)c(-c3ccccc3)nc2c1
Major prion protein
  IC50: 7.84 µM (active)
cells
  IC50: > 138 µM (inactive)

## COc1cc(OC)c(N2CC(C(=O)NCCC3=CCCCC3)CC2=O)cc1Cl (stereo unspecified)
Fatty acid synthase [2]
  IC50: 9.83 µM (active)
Fatty acid synthase [3]
  IC50: 11.8 µM (active)

## Cc1noc(C)c1S(=O)(=O)Nc1ccc2c(c1)CC(=O)N([C@H](C)CO)C[C@@H](C)[C@@H](CN(C)Cc1ccc(C(F)(F)F)cc1)O2
[4]
  AC50: 5.96 µM (active)

## CCc1nc(SCC(=O)NNC(=O)c2ccc(OC)cc2)c2ccccc2n1
Major prion protein
  IC50: 1.72 µM (active)
cells
  IC50: > 138 µM (inactive)

## CC1(C)CC(=O)C(C(C2=C(O)CC(C)(C)CC2=O)c2cccs2)C(=O)C1 (stereo unspecified)
Genome polyprotein
  IC50: 46.3 µM (active)
[5]
  IC50: 73 µM (active)
Melanocortin receptor 4
  IC50: 29.9 µM (inactive)
[6]
  IC50: > 64.6 µM (inactive)

## CN1C(=O)C(C)(C)c2cc(S(=O)(=O)N3CCCC(C(=O)Nc4ccc(Cl)cc4)C3)ccc21 (stereo unspecified)
Major prion protein
  IC50: 5.86 µM (active)
cells
  IC50: > 138 µM (inactive)

## COc1ccc(N2CCN(C(=O)c3ccc4[nH]c(C)c(C)c4c3)CC2)cc1
Beta-galactosidase
  IC50: > 80 µM (inactive)

## C[C@H](CO)N1C[C@H](C)[C@@H](CN(C)Cc2ccncc2)Oc2c(NC(=O)c3ccc(-c4nccs4)cc3)cccc2C1=O
[4]
  AC50: 20 µM (inactive)

## C[C@H](CO)N1C[C@H](C)[C@H](CN(C)Cc2ccc(C(F)(F)F)cc2)Oc2ccc(NC(=O)Nc3cccc4ccccc34)cc2CC1=O
[4]
  AC50: 1.05 µM (active)

## COCCN1C(=O)c2cc(C(=O)Nc3ccc(C)c(F)c3)ccc2C1Nc1ccc(C)c(F)c1 (stereo unspecified)
Beta-galactosidase
  IC50: > 80 µM (inactive)

## COc1ccc(N2CCN(C(=O)c3cc(=O)c4cc(C)ccc4o3)CC2)cc1
Beta-galactosidase
  IC50: > 80 µM (inactive)

## CN1CCc2c(sc(/N=C/c3cc(Cl)ccc3O)c2C#N)C1
Mu-type opioid receptor
  EC50: 92.4 µM (inactive)
H4
  EC50: 34.8 µM (active)
[7]
  EC50: 5.07 µM (active)
[8]
  EC50: 7.13 µM (active)
[1]
  EC50: 76.1 µM (inactive)
